Source: patent publication US8821568B2, “Implant modified with non-hydroxylated vitamin D precursors” (Numat Biomedical S.L., priority 2008, dated 2014)

Key:
MC3T3-E1 cells [1] = assay: Real-time RT-PCR of vitamin D hydroxylation/degradation enzymes (CYP27A1, CYP27B1, CYP24A1), plastic wells; format: cell-based, mouse; conditions: TCP, 2 days
Method: To test the effect of the different treatments onto the plastic wells, 96-well plates made of polystyrene were used and the treatments with 7-DHC performed directly onto them. Cells grown onto untreated TCP were added as a control for all the experiments. Cells were seeded at a density of 30,000 cells/cm^2 and they were maintained in α-MEM supplemented with 10% FCS and antibiotics. Culture media was collected after 48 hours, to test cytotoxicity and the production of the hydroxylated forms of vitamin D. Cells were harvested after 2 days of culture using Trizol reagent (Roche Diagnostics, Mannheim, Germany), to analyse early gene expression response of several osteoblast differentiation markers and enzymes involved in vitamin D synthesis using real-time RT-PCR.
RNA was isolated from cells using a monophasic solution of phenol and guanidine thiocyanate (Trizol, Roche Diagnostics, Mannheim, Germany) according to the manufacturer's protocol. RNA was quantified at 260 nm using a Nanodrop spectrophotometer (NanoDrop Technologies, Wilmington, Del., USA).
Total RNA previously isolated was reverse-transcribed to cDNA using High Capacity RNA to cDNA kit (Applied Biosystems, Foster City, Calif.) according to the protocol of the supplier. The same amount of total RNA from each sample was converted into cDNA. Each cDNA was diluted ¼ and aliquots were stored at −20° C. until the PCR reactions were carried out.
Real-time RT-PCR was performed for two reference genes: 18S ribosomal RNA (18S rRNA), glyceraldehyde-3-phosphate dehydrogenase (GAPDH), and 11 target genes alkaline phospathase (ALP), Interleukin 6 (IL-6), Collagen (Coll-1), Osteocalcin (OC), Bone Morphogenetic Protein 2 (BMP-2), Osterix (Osx), Receptor activator of nuclear factor kappa-B ligand (RANKL), Osteoprogesterin (OPG) and genes involved in vitamin D synthesis such as Vitamin D3 25-hydroxylase (CYP27A1), 25 hydroxyvitamin D3-1-alpha hydroxylase (CYP27B1) and 1,25-dihydroxyvitamin D3 24-hydroxylase (CYP24A1).
Real-time PCR were performed in the Lightcycler 480® (Roche Diagnostics, Germany). […] After each cycle, fluorescence was measured at 72° C. […]
To allow relative quantification after PCR, real-time efficiencies were calculated from the given slopes in the LightCycler 480 software (Roche Diagnostics, Mannheim, Germany) using serial dilutions. Relative quantification after PCR was calculated by normalizing target gene concentration in each sample by the concentration mean of the two reference genes in given sample using the “advanced relative quantification method” provided by the LightCycler 480 analysis software.

MC3T3-E1 cells [2] = assay: LDH activity (cytotoxicity) of cells on treated tissue culture plastic wells; format: cell-based, mouse; conditions: TCP wells; after 24 hours; UV-treated (302 nm, 30 min); higher dose (20 nmols); compared to low control
Method: To treat tissue culture plastic (TCP) wells, 10 μl of each dilution treatment were left on the surfaces and were allowed to air-dry for 15 min in the sterile flow bench. For UV-irradiation, a UV lamp of 302 nm was used at an intensity of irradiation of 6 mW/cm^2 (UVP, Upland, Calif., USA) during 30 minutes. Treated surfaces were immediately used for cell culture experiments.
To test the effect of the different treatments onto the plastic wells, 96-well plates made of polystyrene were used and the treatments with 7-DHC performed directly onto them. Cells grown onto untreated TCP were added as a control for all the experiments. Cells were seeded at a density of 30,000 cells/cm^2 and they were maintained in α-MEM supplemented with 10% FCS and antibiotics. […]
Lactate dehydrogenase (LDH) activity in the culture media was used as an index of cell death. LDH activity was determined spectrophotometrically after 30 min incubation at 25° C. of 50 μl of culture and 50 μl of the reaction mixture by measuring the oxidation of NADH at 490 nm in the presence of piruvate following the manufacturer's protocol (Cytotoxicity Detection Kit (LDH), Roche Diagnostics, Mannheim, Germany). […]

CC(C)CCC[C@@H](C)[C@H]1CC[C@H]2C3=CC=C4C[C@@H](O)CC[C@]4(C)[C@H]3CC[C@]12C [7-DHC, 7-dehydrocholesterol]
CYP27B1 mRNA levels (MC3T3-E1 cells [1]; UV-irradiated, higher concentrated samples, significance was not reached): increase in mRNA levels
CYP27A1 mRNA levels (MC3T3-E1 cells [1]; UV-treated doses above the lowest, vs UV-untreated corresponding doses): dose-response increase
Cytotoxicity (LDH activity in culture media) (MC3T3-E1 cells [2]): toxic effect
